From the supplement of paper PMC9663587

Columns and labels:
[1] = compound: CCN1CCN(Cc2ccc(Nc3ncc(F)c(-c4cc(F)c5nc(C)n(C(C)C)c5c4)n3)nc2)CC1; assay: increase in dead-cell fraction, 72 h; higher = more death;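 further: breast cancer cell lines in 384-well plates, stained with Hoechst plus LIVE/DEAD far red dye and imaged, cells above an LDR intensity threshold counted dead, Hoechst-negative corpses included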
Flavopiridol [2] = compound: T1, CN1CC[C@H](c2c(O)cc(O)c3c(=O)cc(-c4ccccc4Cl)oc23)[C@H](O)C1 [Flavopiridol]; assay: as above
YKL-5-124 = compound: C=CC(=O)Nc1ccc(C(=O)Nc2[nH]nc3c2CN(C(=O)N[C@H](CN(C)C)c2ccccc2)C3(C)C)cc1 [YKL-5-124]; assay: GR value, 72 h; higher = faster growth (1 = untreated, <0 = killing);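 further: breast cancer and non-malignant breast epithelial lines, nine half-log doses, viable cells counted by Hoechst and LIVE/DEAD dye imaging versus time-zero plates and DMSO controls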
BSJ-03-123 = compound: CC(=O)c1c(C)c2cnc(Nc3ccc(N4CCN(CCOCCOCCOCCNC(=O)COc5cccc6c5C(=O)N(C5CCC(=O)NC5=O)C6=O)CC4)cn3)nc2n(C2CCCC2)c1=O [BSJ-03-123]; assay: as above
[3] = compound: CC(=O)c1c(C)c2cnc(Nc3ccc(N4CCNCC4)cn3)nc2n(C2CCCC2)c1=O; assay: as above
[4] = compound: CCN1CCN(Cc2ccc(Nc3ncc(F)c(-c4cc(F)c5nc(C)n(C(C)C)c5c4)n3)nc2)CC1; assay: as above
Neratinib/HKI272 = compound: CCOc1cc2ncc(C#N)c(Nc3ccc(OCc4ccccn4)c(Cl)c3)c2cc1NC(=O)/C=C/CN(C)C [Neratinib/HKI272]; assay: as above
[5] = compound: CCc1cnn2c(NCc3ccc[n+]([O-])c3)cc(N3CCCC[C@H]3CCO)nc12; assay: as above
LEE011/Ribociclib = compound: CN(C)C(=O)c1cc2cnc(Nc3ccc(N4CCNCC4)cn3)nc2n1C1CCCC1 [LEE011/Ribociclib]; assay: as above
THZ531 = compound: CN(C)C/C=C/C(=O)Nc1ccc(C(=O)N2CCC[C@@H](Nc3ncc(Cl)c(-c4c[nH]c5ccccc45)n3)C2)cc1 [THZ531]; assay: as above
THZ1 = compound: CN(C)C/C=C/C(=O)Nc1ccc(C(=O)Nc2cccc(Nc3ncc(Cl)c(-c4c[nH]c5ccccc45)n3)c2)cc1 [THZ1]; assay: as above
Flavopiridol [6] = compound: T1, Flavopiridol; assay: as above

## ZR751
[1]; 0.001 µM
  increase in dead-cell fraction: 0.0013
[1]; 0.003162 µM
  increase in dead-cell fraction: 0.0092
[1]; 0.01 µM
  increase in dead-cell fraction: 0.0042
[1]; 0.03162 µM
  increase in dead-cell fraction: 0.0075
[1]; 0.1 µM
  increase in dead-cell fraction: 0.0148
[1]; 0.3162 µM
  increase in dead-cell fraction: 0.021
[1]; 1 µM
  increase in dead-cell fraction: 0.0189
[1]; 3.162 µM
  increase in dead-cell fraction: 0.0151
[1]; 10 µM
  increase in dead-cell fraction: 0.0172
Flavopiridol [2]; 0.0001 µM
  increase in dead-cell fraction: -0.0019
Flavopiridol [2]; 0.0003162 µM
  increase in dead-cell fraction: -0.0035
Flavopiridol [2]; 0.001 µM
  increase in dead-cell fraction: 0.0015
Flavopiridol [2]; 0.003162 µM
  increase in dead-cell fraction: 0.0014
Flavopiridol [2]; 0.01 µM
  increase in dead-cell fraction: -0.0008
Flavopiridol [2]; 0.03162 µM
  increase in dead-cell fraction: -0.0022
Flavopiridol [2]; 0.1 µM
  increase in dead-cell fraction: 0.0001
Flavopiridol [2]; 0.3162 µM
  increase in dead-cell fraction: 0.0129
Flavopiridol [2]; 1 µM
  increase in dead-cell fraction: 0.144
YKL-5-124; 0.001 µM
  GR value: 0.57 GR
YKL-5-124; 0.003162 µM
  GR value: 0.342 GR
YKL-5-124; 0.01 µM
  GR value: 0.325 GR
YKL-5-124; 0.03162 µM
  GR value: 0.282 GR
YKL-5-124; 0.1 µM
  GR value: 0.254 GR
YKL-5-124; 0.3162 µM
  GR value: 0.238 GR
YKL-5-124; 1 µM
  GR value: 0.239 GR
YKL-5-124; 3.162 µM
  GR value: 0.223 GR
YKL-5-124; 10 µM
  GR value: 0.128 GR
BSJ-03-123; 0.001 µM
  GR value: 0.927 GR
BSJ-03-123; 0.003162 µM
  GR value: 0.911 GR
BSJ-03-123; 0.01 µM
  GR value: 0.863 GR
BSJ-03-123; 0.03162 µM
  GR value: 0.788 GR
BSJ-03-123; 0.1 µM
  GR value: 0.838 GR
BSJ-03-123; 0.3162 µM
  GR value: 0.697 GR
BSJ-03-123; 1 µM
  GR value: 0.625 GR
BSJ-03-123; 3.162 µM
  GR value: 0.617 GR
BSJ-03-123; 10 µM
  GR value: 0.22 GR
[3]; 0.0003162 µM
  GR value: 1.02 GR
[3]; 0.001 µM
  GR value: 0.998 GR
[3]; 0.003162 µM
  GR value: 1.03 GR
[3]; 0.01 µM
  GR value: 1.02 GR
[3]; 0.03162 µM
  GR value: 1.02 GR
[3]; 0.1 µM
  GR value: 0.844 GR
[3]; 0.3162 µM
  GR value: 0.719 GR
[3]; 1 µM
  GR value: 0.637 GR
[3]; 3.162 µM
  GR value: 0.489 GR
[4]; 0.001 µM
  GR value: 0.95 GR
[4]; 0.003162 µM
  GR value: 0.94 GR
[4]; 0.01 µM
  GR value: 0.843 GR
[4]; 0.03162 µM
  GR value: 0.604 GR
[4]; 0.1 µM
  GR value: 0.461 GR
[4]; 0.3162 µM
  GR value: 0.366 GR
[4]; 1 µM
  GR value: 0.351 GR
[4]; 3.162 µM
  GR value: 0.309 GR
[4]; 10 µM
  GR value: 0.38 GR
Neratinib/HKI272; 0.0003162 µM
  GR value: 1.01 GR
Neratinib/HKI272; 0.001 µM
  GR value: 1.03 GR
Neratinib/HKI272; 0.003162 µM
  GR value: 0.972 GR
Neratinib/HKI272; 0.01 µM
  GR value: 1.02 GR
Neratinib/HKI272; 0.03162 µM
  GR value: 0.92 GR
Neratinib/HKI272; 0.1 µM
  GR value: 0.864 GR
Neratinib/HKI272; 0.3162 µM
  GR value: 0.741 GR
Neratinib/HKI272; 1 µM
  GR value: 0.757 GR
Neratinib/HKI272; 3.162 µM
  GR value: 0.733 GR
[5]; 0.0001 µM
  GR value: 1.03 GR
[5]; 0.0003162 µM
  GR value: 1.04 GR
[5]; 0.001 µM
  GR value: 1.02 GR
[5]; 0.003162 µM
  GR value: 0.969 GR
[5]; 0.01 µM
  GR value: 1.02 GR
[5]; 0.03162 µM
  GR value: 0.644 GR
[5]; 0.1 µM
  GR value: -0.456 GR
[5]; 0.3162 µM
  GR value: -0.359 GR
[5]; 1 µM
  GR value: -0.434 GR
LEE011/Ribociclib; 0.001 µM
  GR value: 0.912 GR
LEE011/Ribociclib; 0.003162 µM
  GR value: 0.814 GR
LEE011/Ribociclib; 0.01 µM
  GR value: 0.881 GR
LEE011/Ribociclib; 0.03162 µM
  GR value: 0.801 GR
LEE011/Ribociclib; 0.1 µM
  GR value: 0.812 GR
LEE011/Ribociclib; 0.3162 µM
  GR value: 0.667 GR
LEE011/Ribociclib; 1 µM
  GR value: 0.737 GR
LEE011/Ribociclib; 3.162 µM
  GR value: 0.603 GR
LEE011/Ribociclib; 10 µM
  GR value: 0.351 GR
THZ531; 0.0001 µM
  GR value: 1.06 GR
THZ531; 0.0003162 µM
  GR value: 0.851 GR
THZ531; 0.001 µM
  GR value: 0.958 GR
THZ531; 0.003162 µM
  GR value: 0.936 GR
THZ531; 0.01 µM
  GR value: 1.03 GR
THZ531; 0.03162 µM
  GR value: 0.969 GR
THZ531; 0.1 µM
  GR value: 0.991 GR
THZ531; 0.3162 µM
  GR value: 0.856 GR
THZ531; 1 µM
  GR value: -0.208 GR
THZ1; 0.0001 µM
  GR value: 1.03 GR
THZ1; 0.0003162 µM
  GR value: 1.02 GR
THZ1; 0.001 µM
  GR value: 0.935 GR
THZ1; 0.003162 µM
  GR value: 0.967 GR
THZ1; 0.01 µM
  GR value: 0.949 GR
THZ1; 0.03162 µM
  GR value: 0.915 GR
THZ1; 0.1 µM
  GR value: 0.816 GR
THZ1; 0.3162 µM
  GR value: 0.748 GR
THZ1; 1 µM
  GR value: -0.165 GR
Flavopiridol [6]; 0.0001 µM
  GR value: 0.988 GR
Flavopiridol [6]; 0.0003162 µM
  GR value: 0.993 GR
Flavopiridol [6]; 0.001 µM
  GR value: 0.995 GR
Flavopiridol [6]; 0.003162 µM
  GR value: 0.915 GR
Flavopiridol [6]; 0.01 µM
  GR value: 0.952 GR
Flavopiridol [6]; 0.03162 µM
  GR value: 0.988 GR
Flavopiridol [6]; 0.1 µM
  GR value: 0.935 GR
Flavopiridol [6]; 0.3162 µM
  GR value: 0.577 GR
Flavopiridol [6]; 1 µM
  GR value: -0.371 GR
